Measured values reported in patent publication US20250034182A1, “PHOSPHOLIPID COMPOUNDS AND METHODS OF MAKING AND USING THE SAME” (priority 2021, published 2025).
Where two headings read alike, the source gives them in different places.

Tests used:
HCV Replicon 2A = HCV Replicon 2A EC50 (Example Q); format: cell-based; conditions: Hepatitis C virus, 72 h, read-out: HCV Replicon 2A EC50 (nM) (per Ex. Q)
Procedure: (§1) Compounds were serially diluted in ten steps of 1:3 dilutions in 384-well plates. All serial dilutions were performed in four replicates per compound within the same 384-well plate. An HCV protease inhibitor ITMN-191 at […] was added as a control of 100% inhibition of HCV replication while puromycin at 10 mM was included as a control of 100% cytotoxicity. To each well of a black polystyrene 384-well plate (Greiner Bio-one, Monroe, NC), 90 μL of cell culture medium (without Geneticin) containing 2000 suspended HCV replicon cells was added with a Biotek μFlow workstation. For compound transfer into cell culture plates, 0.4 μL of compound solution from the compound serial dilution plate was transferred to the cell culture plate on a Biomek FX workstation. The DMSO concentration in the final assay wells was 0.44%. The plates were incubated for 3 days at 37° C. with 5% CO2 and 85% humidity. The HCV replicon assay was a multiplex assay, able to assess both cytotoxicity and antireplicon activity from the same well. The CC50 assay was performed first. The media in the 384-well cell culture plate was aspirated, and the wells were washed four times with 100 μL of PBS each, using a Biotek ELX405 plate washer. A volume of 50 μL of a solution containing 400 nM calcein AM (Anaspec, Fremont, CA) in 1×PBS was added to each well of the plate with a Biotek μFlow workstation. The plate was incubated for 30 min at room temperature before the fluorescence signal (excitation 490 nm, emission 520 nm) was measured with a Perkin-Elmer Envision plate reader. The EC50 assay was performed in the same wells as the CC50 assay. The calcein-PBS solution in the 384-well cell culture plate was aspirated with a Biotek ELX405 plate washer. A volume of 20 μL of Dual-Glo luciferase buffer (Promega, Madison, WI) was added to each well of the plate with a Biotek μFlow Workstation. The plate was incubated for 10 min at room temperature. A volume of 20 μL of a solution containing a 1:100 mixture of Dual-Glo Stop & Glo substrate (Promega, Madison, WI) and Dual-Glo Stop & Glo buffer (Promega, Madison, WI) was added to each well of the plate with a Biotek μFlow Workstation. The plate was then incubated at room temperature for 10 min before the luminescence signal was measured with a Perkin-Elmer Envision Plate Reader.

[1] = HCV Replicon 2A CC50, calcein AM (Example Q); format: cell-based; conditions: calcein AM fluorescence, read-out: HCV Replicon 2A CC50 (nM) (per Ex. Q)
Procedure: as §1

[2] = HCV replicon cells, 3 days, Dual-Glo luciferase

Structure (SMILES) | EC50 (HCV Replicon 2A) [nM] | CC50 at 3 days ([1]; HCV replicon cells) [nM] | EC50 (HCV Replicon 2A; [2]) [nM] | CC50 at 3 days ([1]; HCV replicon cells (2A)) [nM]
CCCCCCCCCCCCCCCCCCC[C@H](COP(=O)(O)OC[C@@]1(C#N)O[C@@H](c2ccc3c(N)ncnn23)[C@H](O)[C@@H]1O)OCc1ccc(-n2cncn2)c(C#N)c1 [Compound 30, ((2R,3S,4R)-5-(4-aminopyrrolo[2,1-f][1,2,4]triazin-7-yl)-2-cyano-3,4-dihydroxytetrahydrofuran-2-yl)methyl ((R)-2-((3-cyano-4-(1H-1,2,4-triazol-1-yl)benzyl)oxy)henicosyl) hydrogen phosphate] | 15800 | 42400 | – | –
CCCCCCCCCCCCCCCCCCCC[C@@H](COP(=O)(O)OC[C@@]1(C#N)O[C@@H](c2ccc3c(N)ncnn23)[C@H](O)[C@@H]1O)OCc1cc(F)cc(C#N)c1 [Compound 70, ((2R,3S,4R)-5-(4-aminopyrrolo[2,1-f][1,2,4]triazin-7-yl)-2-cyano-3,4-dihydroxytetrahydrofuran-2-yl)methyl ((S)-2-((3-cyano-5-fluorobenzyl)oxy)docosyl) hydrogen phosphate] | 25200 | 42700 | – | –
CCCCCCCCCCCCCCC[C@H](COP(=O)(O)OC[C@@]1(C#N)O[C@@H](c2ccc3c(N)ncnn23)[C@H](O)[C@@H]1O)OCc1cc(F)cc(C#N)c1 [Compound 80, ((2R,3S,4R,5S)-5-(4-aminopyrrolo[2,1-f][1,2,4]triazin-7-yl)-2-cyano-3,4-dihydroxytetrahydrofuran-2-yl)methyl ((R)-2-((3-cyano-5-fluorobenzyl)oxy)heptadecyl) hydrogen phosphate] | – | – | 21200 | 36900
CCCCCCCCCCCCCCCCCC[C@@H](COP(=O)(O)OC[C@@]1(C#N)O[C@@H](c2ccc3c(N)ncnn23)[C@H](O)[C@@H]1O)OCc1cc(F)cc(C#N)c1 [Compound 37, ((2R,3S,4R)-5-(4-aminopyrrolo[2,1-f][1,2,4]triazin-7-yl)-2-cyano-3,4-dihydroxytetrahydrofuran-2-yl)methyl ((S)-2-((3-cyano-5-fluorobenzyl)oxy)icosyl) hydrogen phosphate] | – | – | 26000 | > 44400
CCCCCCCCCCCCCCCCCCOC[C@H](COP(=O)(O)OC[C@@]1(C#N)O[C@@H](c2ccc3c(N)ncnn23)[C@H](O)[C@@H]1O)OCc1ccc(C#N)c(Cl)c1 [Compound 7, ((2R,3S,4R,5S)-5-(4-aminopyrrolo[2,1-f][1,2,4]triazin-7-yl)-2-cyano-3,4-dihydroxytetrahydrofuran-2-yl)methyl ((R)-2-((3-chloro-4-cyanobenzyl)oxy)-3-(octadecyloxy)propyl) hydrogen phosphate] | – | – | 30600 | > 44400
CCCCCCCCCCCCCCCCCCOC[C@H](COP(=O)(O)OC[C@@]1(C#N)O[C@@H](c2ccc3c(N)ncnn23)[C@H](O)[C@@H]1O)OCc1cc(F)cc(C#N)c1 [Compound 1, ((2R,3S,4R,5S)-5-(4-aminopyrrolo[2,1-f][1,2,4]triazin-7-yl)-2-cyano-3,4-dihydroxytetrahydrofuran-2-yl)methyl ((R)-2-((3-cyano-5-fluorobenzyl)oxy)-3-(octadecyloxy)propyl) hydrogen phosphate] | – | – | 20600 | > 44400
CCCCCCCCCCCCCCCCC[C@@H](COP(=O)(O)OC[C@@]1(C#N)O[C@@H](c2ccc3c(N)ncnn23)[C@H](O)[C@@H]1O)OCc1cc(F)cc(C#N)c1 [Compound 74, ((2R,3S,4R)-5-(4-aminopyrrolo[2,1-f][1,2,4]triazin-7-yl)-2-cyano-3,4-dihydroxytetrahydrofuran-2-yl)methyl ((S)-2-((3-cyano-5-fluorobenzyl)oxy)nonadecyl) hydrogen phosphate] | 22800 | 35800 | – | –
CCCCCCCCCCCCCCCCCC[C@H](COP(=O)(O)OC[C@@]1(C#N)O[C@@H](c2ccc3c(N)ncnn23)[C@H](O)[C@@H]1O)OCc1cc(Cl)cc(C#N)c1 [Compound 81, ((2R,3S,4R,5S)-5-(4-aminopyrrolo[2,1-f][1,2,4]triazin-7-yl)-2-cyano-3,4-dihydroxytetrahydrofuran-2-yl)methyl ((R)-2-((3-chloro-5-cyanobenzyl)oxy)icosyl) hydrogen phosphate] | – | – | 15900 | 37900
CCCCCCCCCCCCCCCCCCOC[C@H](COP(=O)(O)OC[C@@]1(C#N)O[C@@H](c2ccc3c(N)ncnn23)[C@H](O)[C@@H]1O)OCc1ccc(C#N)cc1OC [Compound 73, ((2R,3S,4R)-5-(4-aminopyrrolo[2,1-f][1,2,4]triazin-7-yl)-2-cyano-3,4-dihydroxytetrahydrofuran-2-yl)methyl ((R)-2-((4-cyano-2-methoxybenzyl)oxy)-3-(octadecyloxy)propyl) hydrogen phosphate] | – | – | 20400 | > 44400
CCCCCCCCCCCCCCCCC[C@H](COP(=O)(O)OC[C@@]1(C#N)O[C@@H](c2ccc3c(N)ncnn23)[C@H](O)[C@@H]1O)OCc1cc(F)cc(C#N)c1 [Compound 36, ((2R,3S,4R,5S)-5-(4-aminopyrrolo[2,1-f][1,2,4]triazin-7-yl)-2-cyano-3,4-dihydroxytetrahydrofuran-2-yl)methyl ((R)-2-((3-cyano-5-fluorobenzyl)oxy)nonadecyl) hydrogen phosphate] | 21800 | > 44400 | – | –
CCCCCCCCCCCCCCCC[C@@H](COP(=O)(O)OC[C@@]1(C#N)O[C@@H](c2ccc3c(N)ncnn23)[C@H](O)[C@@H]1O)OCc1cc(F)cc(C#N)c1 [Compound 79, ((2R,3S,4R,5S)-5-(4-aminopyrrolo[2,1-f][1,2,4]triazin-7-yl)-2-cyano-3,4-dihydroxytetrahydrofuran-2-yl)methyl ((S)-2-((3-cyano-5-fluorobenzyl)oxy)octadecyl) hydrogen phosphate] | – | – | 20000 | 30200
CCCCCCCCCCCCCCCC[C@H](COP(=O)(O)OC[C@@]1(C#N)O[C@@H](c2ccc3c(N)ncnn23)[C@H](O)[C@@H]1O)OCc1cc(F)cc(C#N)c1 [Compound 78, ((2R,3S,4R,5S)-5-(4-aminopyrrolo[2,1-f][1,2,4]triazin-7-yl)-2-cyano-3,4-dihydroxytetrahydrofuran-2-yl)methyl ((R)-2-((3-cyano-5-fluorobenzyl)oxy)octadecyl) hydrogen phosphate] | – | – | 18400 | 33800
CCCCCCCCCCCCCCCCCCOC[C@H](COP(=O)(O)OC[C@@]1(C#N)O[C@@H](c2ccc3c(N)ncnn23)[C@H](O)[C@@H]1O)Oc1cccc(C#N)n1 [Compound 21, ((2R,3S,4R,5S)-5-(4-aminopyrrolo[2,1-f][1,2,4]triazin-7-yl)-2-cyano-3,4-dihydroxytetrahydrofuran-2-yl)methyl ((R)-2-((6-cyanopyridin-2-yl)oxy)-3-(octadecyloxy)propyl) hydrogen phosphate] | – | – | 19200 | > 44400
CCCCCCCCCCCCCCCCCCCC[C@H](COP(=O)(O)OC[C@@]1(C#N)O[C@@H](c2ccc3c(N)ncnn23)[C@H](O)[C@@H]1O)Oc1cccc(C#N)c1 [Compound 51, ((2R,3S,4R,5S)-5-(4-aminopyrrolo[2,1-f][1,2,4]triazin-7-yl)-2-cyano-3,4-dihydroxytetrahydrofuran-2-yl)methyl ((R)-2-(3-cyanophenoxy)docosyl) hydrogen phosphate] | – | – | 19200 | > 44400
CCCCCCCCCCCCCCCCCCOC[C@@H](COP(=O)(O)OC[C@@]1(C#N)O[C@@H](c2ccc3c(N)ncnn23)[C@H](O)[C@@H]1O)Oc1ccc(C#N)nc1 [Compound 72, ((2R,3S,4R,5S)-5-(4-aminopyrrolo[2,1-f][1,2,4]triazin-7-yl)-2-cyano-3,4-dihydroxytetrahydrofuran-2-yl)methyl ((S)-2-((6-cyanopyridin-3-yl)oxy)-3-(octadecyloxy)propyl) hydrogen phosphate] | > 44400 | > 44400 | – | –
CCCCCCCCCCCCCCCCCCOC[C@H](COP(=O)(O)OC[C@@]1(C#N)O[C@@H](c2ccc3c(N)ncnn23)[C@H](O)[C@@H]1O)OCc1cccc(C#N)n1 [Compound 68, ((2R,3S,4R)-5-(4-aminopyrrolo[2,1-f][1,2,4]triazin-7-yl)-2-cyano-3,4-dihydroxytetrahydrofuran-2-yl)methyl ((R)-2-((6-cyanopyridin-2-yl)methoxy)-3-(octadecyloxy)propyl) hydrogen phosphate] | 15200 | > 44400 | – | –
